Measurements published in patent US20230330060A1, “COMPOUNDS FOR TREATMENT OF HEART FAILURE” (Sulfateq B.V., priority 2020, published 2023).

Key:
[1] = tested on: doxorubicin-induced heart failure; assay: Cardiac function assessment by PV-loop analysis in rats with doxorubicin-induced heart failure; assay type: in vivo, rat; conditions: for ESP (End-systolic pressure): doxorubicin 2 mg/kg weekly i.p. x9, mean±S.D.; for ESP (End-systolic pressure) / Contractility efficiency / EDP (end-diastolic pressure) / EDV (end-diastolic volume) / ESV (end-systolic volume) / Ea (Arterial elastance) / Ees (ESPVR) end-systolic elastance / Emax (EDPVR) maximal elastance / PRSW (preload recruitable stroke work) / SV (stroke volume) / Tau (time constant of LV pressure decay) / dP/dTmax / dP/dTmin: 12 weeks; for Contractility efficiency / EDP (end-diastolic pressure) / EDV (end-diastolic volume) / ESV (end-systolic volume) / Ea (Arterial elastance) / Ees (ESPVR) end-systolic elastance / Emax (EDPVR) maximal elastance / PRSW (preload recruitable stroke work) / SV (stroke volume) / Tau (time constant of LV pressure decay) / dP/dTmax / dP/dTmin / Cardiac function (heart rate, ejection fraction, stroke work, cardiac output), FIG. 1: doxorubicin rats; for Contractility efficiency / EDP (end-diastolic pressure) / EDV (end-diastolic volume) / ESV (end-systolic volume) / Ea (Arterial elastance) / Ees (ESPVR) end-systolic elastance / Emax (EDPVR) maximal elastance / PRSW (preload recruitable stroke work) / SV (stroke volume) / Tau (time constant of LV pressure decay) / dP/dTmax / dP/dTmin: SUL-150 diet; for Cardiac function (heart rate, ejection fraction, stroke work, cardiac output), FIG. 1: p<0.05 vs doxorubicin group
Procedure: The effectiveness of the compounds according to the invention for treatment or prophylaxis of HFrEF was tested in vivo in rats. Doxorubicin, an anthracycline antibiotic used in cancer chemotherapy, was employed to induce heart failure with reduced ejection fraction in preclinical rat models (Christiansen et al. (2006) Eur. J. Cardiothorac. Surg. 30:611-616; Ertunc et al. (2009) Pharmacology 84:240-248; Hayward et al. (2007) J. Am. Ass. Lab. Animal Sci. 46:20-32). […] The SUL-150 solution was sprayed homogeneously over standard food pellets (1.25 kg). […] Food pellets were freshly prepared weekly. With the approximation of 200 mg/kg SUL-150 in the food pellets and a daily dietary intake of 25 gram for a 350 gram rat, daily dosing of SUL-150 approximates 5 mg per day. Male outbred Wistar rats of 250-300 grams (10-12 weeks old) were kept on a 12h light/dark cycle and received a standard diet with distilled water ad libitum. Thirty rats were administered with doxorubicin (2 mg/kg) weekly via intraperitoneal injection for 9 consecutive weeks and were left either untreated (standard chow diet, 10 rats), or received a diet supplemented with SUL-150 as prophylaxis (prior to the 1st doxorubicin administration, 10 rats) or therapy (starting after the 6th doxorubicin administration, 10 rats). Sham control rats (8 rats) were administered with saline weekly via intraperitoneal injection for 9 consecutive weeks and received a standard diet. All rats were subjected to cardiac function assessment 12 weeks after the first doxorubicin administration. Cardiac function tests (PV-Loop assessment) were performed under anaesthesia (isoflurane in O2 (FiO2 100%)) followed by orotracheal intubation. The rats were placed in a mechanical rodent ventilator (Harvard Apparatus, Holliston, Massachusetts) with tidal volume of 10 mL/kg and 70 breaths per minute. A small window was opened below the sternum and with a small incision a 2F microtip pressure-conductance catheter (SPR-838; Millar Instruments, Houston, Tx) was inserted directly on the left ventricle (LV) through the apex. After stabilization, signals were recorded with a pressure-volume conductance System ([…]-Ultra, Millar Instruments, Houston, Tx) connected to a data acquisition system (PowerLab, AD Instruments, Colorado Springs, Co). […] Volume calibration was performed with fresh heparinized warm blood from each animal. Also, […] of 7.5% hypertonic saline was injected at the end of each experiment for the parallel conductance volume calibration. Data is analysed in GraphPad Prism 8.0 (GraphPad Software Inc, Ca). All results are expressed as mean±S.D. (standard deviation) or median and interquartile interval. The difference between groups was assessed by ANOVA followed by pairwise comparisons to the sham and vehicle treatment groups with p-values adjusted for multiple comparisons using FDR correction.

[2] = tested on: doxorubicin-induced heart failure; assay: Cardiac ATP/ADP ratio (HPLC); assay type: in vivo, rat; conditions: doxorubicin rats; prophylactic or therapeutic administration of SUL-150
Procedure: SUL-150 (250 mg) was dissolved in 100% EtOH (1.02 ml) and further diluted in distilled water (68.7 ml) to obtain a clear 10 mM solution. The SUL-150 solution was sprayed homogeneously over standard food pellets (1.25 kg). Food pellets were air-dried overnight. Food pellets were freshly prepared weekly. With the approximation of 200 mg·kg^−1 SUL-150 in the food pellets and a daily dietary intake of 25 gram for a 350 gram rat, daily dosing of SUL-150 approximates 5 mg·day^−1.
Male outbred Wistar rats of 250-300 grams (10-12 weeks old) were kept on a 12 h light/dark cycle and received a standard diet with distilled water ad libitum. Thirty rats were administered with doxorubicin (2 mg·kg^−1) weekly via intraperitoneal injection for 9 consecutive weeks and were left either untreated (standard chow diet, 10 rats), or received a diet supplemented with SUL-150 as prophylaxis (prior to the 1st doxorubicin administration, 10 rats) or therapy (starting after the 6th doxorubicin administration, 10 rats). […]
Cardiac tissue samples were homogenized in Tris-saturated phenol (pH 7.4) using a TissueRuptor II (Qiagen, Hilden, Germany) to extract adenosines and separated over chloroform:water (1:1 v/v) by centrifugation. […] The eluted nucleotides were detected at a wavelength of 260 nm. Nucleotide concentration of the eluate was calculated using calibration curves for each standard nucleotide peak area. […]

[3] = tested on: mitochondrial complex IV (cytochrome c oxidase); assay: Respiratory complex IV activity in mitochondria isolated from H9C2 cardiomyoblasts; assay type: cell-based, rat
Procedure: H9C2 cardiomyoblasts were exposed to 1 μM DOX in the presence or absence of 1 μM SUL-150 under standard cell culture conditions for 24 h. Mitochondria were isolated using density gradient centrifugation using the MitoCheck® Mitochondrial Isolation Kit (Cayman Chemical #701010, Ann Arbor, MI) according to manufacturer's instructions and assessed for the activity of mitochondrial complex IV (cytochrome c oxidase) by measuring the rate of oxidation of cytochrome c, which is reflected by an […] in absorbance at 550 nm (Cayman Chemical #700990, Ann Arbor, MI).

[4] = therapeutic (after 6th doxorubicin)

Q: With Cc1c(C)c2c(c(C)c1O)CC[C@](C)(C(=O)N1CCNCC1)O2 [SUL-150, (R)-(6-hydroxy-2,5,7,8-tetramethylchroman-2-yl)(piperazin-1-yl)methanone] as the compound, how does the “ESP (End-systolic pressure)” value ([1]; SUL-150 in diet (approx. 5 mg per day) as prophylaxis, prior to 1st doxorubicin) read?
A: 104.4 ± 12.3 mmHg

Q: What about the “ESP (End-systolic pressure)” value ([1]; SUL-150 in diet (approx. 5 mg per day) as therapy, after 6th doxorubicin) of the same compound?
A: 114.3 ± 18.4 mmHg

Q: And the Contractility efficiency ([1]; prophylaxis)?
A: 53.0 ± 16.4 %

Q: And the “EDP (end-diastolic pressure)” value ([1]; prophylaxis)?
A: 8.1 ± 3.0 mmHg

Q: What about the “EDV (end-diastolic volume)” value ([1]; prophylaxis) of the same compound?
A: 325.0 ± 144^ μl

Q: What about the “ESV (end-systolic volume)” value ([1]; prophylaxis) of the same compound?
A: 175.3 ± 107^ μl

Q: What about the “Ea (Arterial elastance)” value ([1]; prophylaxis) of the same compound?
A: 0.7 ± 0.2 mmHg · μl−1

Q: And the “Ees (ESPVR) end-systolic elastance” value ([1]; prophylaxis)?
A: 0.7 ± 0.6 mmHg · μl−1

Q: And the “Emax (EDPVR) maximal elastance” value ([1]; prophylaxis)?
A: 0.04 ± 0.03 mmHg · μl−1

Q: What about the “PRSW (preload recruitable stroke work)” value ([1]; prophylaxis) of the same compound?
A: 9.9 ± 4.0 mmHg · ml−1

Q: What about the “SV (stroke volume)” value ([1]; prophylaxis) of the same compound?
A: 149.7 ± 55.† μl

Q: And the “Tau (time constant of LV pressure decay)” value ([1]; prophylaxis)?
A: 12.5 ± 3.1

Q: And the dP/dTmax ([1]; prophylaxis)?
A: 6144 ± 1782 mmHg · s−1

Q: And the dP/dTmin ([1]; prophylaxis)?
A: −5006 ± 1140 mmHg · s−1

Q: And the Contractility efficiency [1, 4]?
A: 47.1 ± 18.1 %

Q: And the “EDP (end-diastolic pressure)” value [1, 4]?
A: 7.4 ± 3.7 mmHg

Q: What about the “EDV (end-diastolic volume)” value [1, 4] of the same compound?
A: 363.1 ± 115^ μl

Q: What about the “ESV (end-systolic volume)” value [1, 4] of the same compound?
A: 205.0 ± 96.4 µL

Q: What about the “Ea (Arterial elastance)” value [1, 4] of the same compound?
A: 0.7 ± 0.2 mmHg · μl−1

Q: And the “Ees (ESPVR) end-systolic elastance” value [1, 4]?
A: 0.5 ± 0.4 mmHg · μl−1

Q: What about the “Emax (EDPVR) maximal elastance” value [1, 4] of the same compound?
A: 0.03 ± 0.02 mmHg · μl−1

Q: And the “PRSW (preload recruitable stroke work)” value [1, 4]?
A: 11.0 ± 3.9 mmHg · ml−1

Q: What about the “SV (stroke volume)” value [1, 4] of the same compound?
A: 158.1 ± 55.† μl

Q: And the “Tau (time constant of LV pressure decay)” value [1, 4]?
A: 13.6 ± 5.2

Q: And the dP/dTmax [1, 4]?
A: 6487 ± 1665 mmHg · s−1

Q: What about the dP/dTmin [1, 4] of the same compound?
A: −5092 ± 1447 mmHg · s−1

Q: And the “Cardiac function (heart rate, ejection fraction, stroke work, cardiac output), FIG. 1” value ([1]; SUL-150 via food pellets after 6 cumulative doxorubicin administrations (therapeutic group))?
A: substantially improves the cardiac function

Q: What about the “Cardiac function (heart rate, ejection fraction, stroke work, cardiac output), FIG. 1” value ([1]; SUL-150 via food pellets prior to doxorubicin (prophylaxis group)) of the same compound?
A: substantially preserves cardiac function and largely maintains ejection fraction and cardiac output

Q: And the “Doxorubicin-induced reduction of cardiac ATP content (normalized for ADP), FIG. 6A” value [2]?
A: mitigated

Q: And the “Respiratory complex IV activity, FIG. 7” value ([3]; H9C2 cardiomyoblasts co-incubated with doxorubicin and SUL-150, both 1 μM for 24 h)?
A: maintains complex IV activity

Q: And the “Respiratory complex IV activity” value ([3]; untreated control H9C2 cardiomyoblasts, SUL-150 1 μM for 24 h)?
A: does not alter the activity of respiratory complex IV
